According to article PMC6934184, “Selective DNA-PKcs inhibition extends the therapeutic index of localized radiotherapy and chemotherapy” (The Journal of Clinical Investigation, 2019):

Target: T1, SRC N1 (Homo sapiens, UniProt P12931)
T1 construct: purchased Thermo Fisher Scientific (Life Technologies) SelectScreen
Test: SelectScreen Z'LYTE
Assay type: biochemical
Summary of the method: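 NU5455 was profiled across the SelectScreen Broad panel of kinase activity and binding assays. Z'LYTE reactions such as CSF1R ran at apparent Km ATP, while the Adapta CAMK1 assay used ATP listed as 10. Values are given as percent.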

T1 sequence (P12931 1-542 isoform P12931-2): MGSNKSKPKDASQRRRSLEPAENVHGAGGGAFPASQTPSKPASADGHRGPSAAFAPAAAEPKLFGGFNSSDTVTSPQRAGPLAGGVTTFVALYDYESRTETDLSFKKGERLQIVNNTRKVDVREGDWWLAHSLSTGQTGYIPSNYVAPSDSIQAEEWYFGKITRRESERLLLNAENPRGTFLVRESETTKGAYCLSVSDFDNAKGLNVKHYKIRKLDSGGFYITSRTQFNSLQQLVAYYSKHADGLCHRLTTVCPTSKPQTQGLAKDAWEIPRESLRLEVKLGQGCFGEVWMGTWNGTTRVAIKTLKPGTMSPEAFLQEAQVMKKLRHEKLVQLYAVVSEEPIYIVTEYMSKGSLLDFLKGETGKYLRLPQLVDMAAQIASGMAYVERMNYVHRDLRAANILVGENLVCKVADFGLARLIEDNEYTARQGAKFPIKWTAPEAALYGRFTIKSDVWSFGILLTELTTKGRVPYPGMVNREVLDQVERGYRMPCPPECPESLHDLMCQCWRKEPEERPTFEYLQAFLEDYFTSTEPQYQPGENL

Work on `CN(C(=O)CN1CCOCC1)c1ccc2sc3c(-c4cccc5c(=O)cc(N6CC7CCC(C6)O7)oc45)cccc3c2c1` [NU5455] yielded an inhibition at 1 µM of 3.9%.
